US20120022142A1, “RNA Interference Mediated Inhibition of Signal Transducer and Activator of Transcription 1 (STAT1) Gene Expression Using Short Interfering Nucleic Acid (siNA)” (Merck Sharp & Dohme Corp., priority 2009, published 2012)
Read-outs that look alike come from different tables or passages of the source. [invAb] = inverted abasic unit; m = 2'-O-methyl; r = 2'-OH (RNA); f = 2'-fluoro

Columns and labels:
STAT3 mRNA = test: Effect of STAT1 siRNAs on expression of STAT3 mRNA in A549 cells (quantitative RT-PCR); format: cell-based, human; conditions: 1 nM siRNA, normalized to GAPDH
Description: (§1) A series of probes and primers were used to detect the various mRNA transcripts of the genes of β-Actin (human cell line only), and of STAT1 and GAPDH in mouse and human cell lines. All Taqman probes and primers for the experiments here-in described were supplied as pre-validated sets by Applied Biosystems, Inc. (see Table 2).
The levels of expression of STAT3 were normalized to the level of GAPDH. There was no significant effect (p>0.05) of treatment with any of the lead STAT1 siRNAs on the expression human or mouse STAT3 mRNA at 1 nM (10 to 100 times the IC50s of the siRNAs).

STAT1 mRNA = test: Efficacy (% KD) and potency (IC50) of STAT1 mRNA knockdown of siNA leads in A549 cells; format: cell-based, human; conditions: for Human (A549) avg % KD: STAT1 mRNA, 30 nM siNA, at least three experiments
Description: A549 cells were plated in 6-well plates at final counts of 70,000 cells/well in 2 ml of complete growth media (Ham's F12, Cellgro Cat# 10-080-CV+10% FBS). Transfection was performed using 2.5 uL of RNAiMax (Invitrogen Cat# 13778-150) per well. Final concentration of siNAs was 30, 3, 0.3, 0.03, 0.003, and 0.0003 nM done in duplicate. The siNAs were incubated for 24-72 hours. The duplicate samples were pooled to prepare protein lysates and RNA using the “PARIS” Protein and RNA Isolation System from Ambion, Cat# 1921. The total protein in the lysates was measured using a Bradford Dye Reagent (Bio-Rad, Cat# 500-0205).SDS-PAGE/Western Blotting was performed on the on the protein samples and RT-PCR on the RNA samples.
as §1
The assays were performed on an ABI 7900 instrument, according to the manufacturer's instructions.
The expression level of the gene of interest and % knock-down was calculated using Comparative Ct method: […]
All calculations of IC50s were performed using SigmaPlot 10.0 software. The data were analyzed using the sigmoidal dose-response (variable slope) equation for simple ligand binding. In all of the calculations of the % knock-down, the calculation was made relative to the normalized level of expression of the gene of interest in the samples treated with the non-targeting control (Ctrl siNA) unless otherwise indicated.
Certain siNAs were further analyzed for efficacy in human A549 cells and mouse NIH3T3 cells. Percent KD/reduction is represented as mean±S.D. IC50 is represented as mean±S.D. The date is summarized from at least three separate experiments and within each experiment, the data point is calculated from an n=2. The final concentration of siNA used was 30 nM.

STAT1 mouse mRNA = test: Initial screen of siNAs: STAT1 mRNA knock-down in NIH 3T3 cells (96-well transfection, Taqman RT-PCR); format: cell-based; conditions: 10 nM siNA, 24 hrs, normalized against GAPDH, average of 2 experiments
Description: NIH 3T3 (mouse; ATCC cat# CRL-1658): Cells were cultured at 37° C. in the presence of 5% CO2 and grown in Dulbecco's modified Eagle's medium (DMEM) with 4 mM L-glutamine adjusted to contain 1.5 g/L sodium bicarbonate and 4.5 g/L glucose and supplemented with fetal bovine serum at a final concentration of 10%, 100 μg/mL of streptomycin, and 100 U/mL penicillin.
Cells were plated in all wells of a tissue-culture treated, 96-well plate at a final count of 5000 cells/well in 100 μL of the appropriate culture media. The cells were cultured for 24 hours after plating at 37° C. in the presence of 5% CO2.
After 24 hours, complexes containing siNA and RNAiMax were created as follows: A solution of RNAiMax diluted 33-fold in OPTI-MEM was prepared. In parallel, solutions of the siNAs for testing were prepared to a final concentration of 120 nM in OPTI-MEM. After incubation of RNAiMax/OPTI-MEM solution at room temperature for 5 min, an equal volume of the siNA solution and the RNAiMax solution were added together for each of the siNAs.
This solution was incubated at room temperature for 20 minutes. After incubation, 20 uL of the solution was added to each of the relevant wells. The final concentration of siNA in each well was 10 nM and the final volume of RNAiMax in each well was 0.3 ul.
The time of incubation with the RNAiMax-siNA complexes was 24 hours and there was no change in media between transfection and harvesting, unless otherwise indicated.
RNA was extracted from a 96-well plate using the TaqMan® Gene Expression Cells-to-CT™ Kit (Cat# 4399002) with a modified protocol. Briefly, a 60 uL (1 plate) or 110 uL (2 plates) of the Lysis Solution with DNase I was dispensed into each well of the Lysis Buffer Plate (twin.tec full skirt plate). The lysis buffer and stop plates were stored at 4° C. until the cells were washed.
The culture medium was aspirated and discarded from the wells of the culture plate. 50 uL of chilled DPBS was added to each well, then aspirated and discarded. The lysis was performed automatically using a BioMek FX instrument and method. After the Biomek method was completed, the lysis plate was incubated for 2 min at room temperature. The lysis plate can be stored for 2 hours at 4° C., or at −20° C. or −80° C. for two months.
Each well of the reverse transcription plate required 10 uL of 2× reverse transcriptase Buffer, 1 uL of 20× reverse transcription enzyme and 2 uL of nuclease-free water. The reverse transcription master mix was prepared by mixing 2× reverse transcription buffer, 20× reverse transcription enzyme mix, and nuclease-free water. 13 uL of the reverse transcription master mix was dispensed into each well of the reverse transcription plate (semi-skirted). A separate reverse transcription plate was prepared for each cell plate. The plate was loaded onto a Biomek NX or Biomek FX Dual-96 and the Biomek method was run. The program is programmed to automatically added 7 uL of lysate from the cell lysis procedure described above into each well of the reverse transcription plate. The plate is sealed and spun on a centrifuge (1000 rpm for 30 seconds) to settle the contents to the bottom of the reverse transcription plate. The plate is placed in a thermocycler at 37° C. for 60 min, 95° C. for 5 min, and 4° C. until the plate is removed from the thermocycler. Upon removal, if not used immediately, the plate was frozen at −20° C.
as §1
The assays were performed on an ABI 7900 instrument, according to the manufacturer's instructions. […]

[1] = A549 cells, Table 5, read-out: IC50 vs. STAT1 mRNA
[2] = STAT1 mRNA knockdown, mean ± S.D., read-out: Human (A549) IC50

| Substance | STAT3 % KD at 1 nM (STAT3 mRNA) | IC50 (STAT1 mRNA; [1]) | IC50 (STAT1 mRNA; [2]) | Human (A549) avg % KD (STAT1 mRNA; mean ± S.D.) | % KD Mouse (STAT1 mouse mRNA) |
| --- | --- | --- | --- | --- | --- |
| 25351-DC: STAT1 siNA duplex, human target site 2249; modified strands SEQ ID NO: 39 and 40 (chain 1 CCUACACGAAGAAAGAACUTT; chain 2 AGUUCUUUCUUCGUGUAGGUU; chain 1: DNA at AGT, 2'-fluoro at CU, [invAb] at 5' end, 3' end, backbone not given here; chain 2: sugars from the 5' end rrrfffffffffmfmfmmmmm, backbone not given here) | 8% | 0.025 ± 0.009 nM | 0.012 ± 0.002 nM | 91.7 ± 0.1% | 82% |
| 25367-DC: STAT1 siNA duplex, human target site 966; modified strands SEQ ID NO: 71 and 72 (chain 1 GCUUGACAAUAAGAGAAAGTT; chain 2 CUUUCUCUUAUUGUCAAGCUU; chain 1: DNA at AGT, 2'-fluoro at CU, [invAb] at 5' end, 3' end, backbone not given here; chain 2: sugars from the 5' end rrrffffffmffmffmmmfmm, backbone not given here) | 12% | 0.01 ± 0.0064 nM | 0.032 ± 0.014 nM | 88.6 ± 1.1% | 82% |
| 25368-DC: STAT1 siNA duplex, human target site 782; modified strands SEQ ID NO: 73 and 74 (chain 1 GUAAAGUCAGAAAUGUGAATT; chain 2 UUCACAUUUCUGACUUUACUU; chain 1: DNA at AGT, 2'-fluoro at CU, [invAb] at 5' end, 3' end, backbone not given here; chain 2: sugars from the 5' end rrrmfmfffffmmffffmfmm, backbone not given here) | −2% | 0.097 ± 0.018 nM | 0.01 ± 0.0064 nM | 89.1 ± 1.8% | 87% |
| 25369-DC: STAT1 siNA duplex, human target site 602; modified strands SEQ ID NO: 75 and 76 (chain 1 GGAAAAGCAAGCGUAAUCUTT; chain 2 AGAUUACGCUUGCUUUUCCUU; chain 1: DNA at AGT, 2'-fluoro at CU, [invAb] at 5' end, 3' end, backbone not given here; chain 2: sugars from the 5' end rrrffmfmfffmfffffffmm, backbone not given here) | −2% | 0.012 ± 0.002 nM | 0.097 ± 0.018 nM | 88.8 ± 3.1% | 66% |
| 25372-DC: STAT1 siNA duplex, human target site 968; modified strands SEQ ID NO: 81 and 82 (chain 1 UUGACAAUAAGAGAAAGGATT; chain 2 UCCUUUCUCUUAUUGUCAAUU; chain 1: DNA at AGT, 2'-fluoro at CU, [invAb] at 5' end, 3' end, backbone not given here; chain 2: sugars from the 5' end rrrffffffffmffmffmmmm, backbone not given here) | 3% | 0.032 ± 0.014 nM | 0.025 ± 0.009 nM | 86.0 ± 2.0% | 81% |
